Legend:
[1] = test system: Mango (Mangifera Indica Linn. variety name: Irwin); test: Rooting of mango cuttings in rooting medium containing oxidized glutathione; format: in vivo; conditions: one and half months
Description: A mango (Mangifera Indica Linn. variety name: Irwin) was used as a material of a cutting. Specifically, a cutting including one to three joints and one to five leaves was cut from a branch of a mother tree, and each leaf was partially cut off. Furthermore, the material was wounded by a cutter. The cutting was thus prepared.
The shoot thus obtained was washed with running water over night, and was dipped into an insecticide solution such as “Kotetsu”. Then the shoot had been planted to a supporter infiltrated with a four-diluted MS medium (Composition: ammonium nitrate of 412.5 mg/L, potassium nitrate of 475 mg/L, sodium dihydrogenphosphate of 42.52 mg/L, potassium iodide of 0.21 mg/L, etc. Note that a carbon source other than glutathione was not added to this medium.) to which the oxidized glutathione of 50 mg/L, STS (AgS4O6) of 5 μM serving as a silver ion source, ascorbic acid of 50 mg/L serving an antioxidant, and IBA of 10 mg/L serving as a plant hormone were added. In this case, natural soil such as sand and akadama soil; or a composite soil of vermiculite, perlite, peat moss, etc. was used as the supporter. […]
Ten to twenty shoots were planted per culture container. A rooting rate was calculated from the number of test pieces of the shoot and the number of shoots (the number of rooted shoots) which had been rooted after the foliage was cultured for one and half months.

[2] = test system: Tea plant; test: Rooting of tea plant cuttings, granule oxidized glutathione mixed with composite soil; format: in vivo; conditions: mix with soil; for Rooting rate (%): 462 test pieces; for Number of rooted shoots: of 462 test pieces
Procedure: Oxidized glutathione was prepared in such a way that 1% granule oxidized glutathione was mixed with a composite soil was used. Specifically, 1% granule oxidized glutathione of 15 g was mixed with a composite soil of peat moss and vermiculite (5.5 L), and was then put into a seedling pot (3 cm in inner diameter×15 cm in height×66 holes). This seedling pot served as a supporter. A four-diluted MS medium (Composition: ammonium nitrate of 412.5 mg/L, potassium nitrate of 475 mg/L, sodium dihydrogenphosphate of 42.52 mg/L, and potassium iodide of 0.21 mg/L. Note that a carbon source was not added to this medium.) to which IBA serving as a plant hormone of 10 mg/L was added was sprayed from the above the seedling pot by use of a watering can so that the supporter was soaked with the four-diluted MS medium.
Tea plant was used as a material for a cutting. Specifically, a cutting grown to have a length of about 5 cm to 20 cm, about one to three joints, about one to six leaves was cut out from a mother tree, and a tip of each leaf was cut off. In this way, the cutting was adjusted and prepared.
A base of the cutting thus adjusted and prepared was planted to a supporter (66 cuttings were planted per seedling pot). After this planting, the shoot was cultured for one and half months in a carbon dioxide gas concentration of 1000 ppm, a temperature of 25° C., and a humidity of 60% having a wavelength component of 650 nm to 670 nm to a wavelength component of 450 nm to 470 nm at a ratio of 8.2:1.8 under irradiation of red light having photosynthesis photon flux density of 51.3 μmol/m^2/S. After that, the seedling pot was moved to a green house, and was bred for two and half months. In the green house, a high humidity (80% or more) was kept by frequently spraying mist. After two and half month from this moving, a rooting rate was calculated from the number of rooted cuttings.
The culture was carried out in the same way as Example 12, except that an amount of 1% granule oxidized glutathione to be added to a composite soil (5.5 L) was set to 75 g.

[3] = test system: E. globulus (Clone B); test: Rooting of shoots with wounded base in rooting medium containing oxidized glutathione; format: in vivo, Eucalyptus globulus; conditions: for Rooting rate (%): 9 test pieces; for Number of rooted shoots: of 9 test pieces
Procedure: A base of the shoot thus obtained was planted to a foaming phenolic resin porous supporter (Manufactured by Smithers-Oasis Company; Product name: Oasis). […] The base of the shoot was cultured for two months in carbon dioxide gas of 1000 ppm at a temperature of 25° C. under irradiation of red light having photosynthesis photon flux density of 51.3 μmol/m^2/S and having a wavelength component of 650 nm to 670 nm to a wavelength component of 450 nm to 470 nm at a ratio of 8.2:1.8. The culturing was carried out with a culture container, which was a cube container (maximum size of about 10 cm to 11.5 cm in length×10 cm to 11.5 cm in width×10.0 cm in height) having a shape whose bulge was slightly protruded. […] Carbon dioxide gas outside the culture container was allowed to enter the culture container through this carbon dioxide gas permeable membrane covering the opening. Accordingly, carbon dioxide gas concentration inside the culture container was about 1000 ppm due to the permeation of the carbon dioxide gas through the film covering the opening of the culture container. The culture container was irradiated with red light by use of a light irradiation device (Product name: CCFL unit, maker's name: Nippon Medical& Chemical Instruments CO., LTD.). Further, humidity in the culture container is adjusted by sealing the culture container with Parafilm.
Nine shoots were planted per culture container. A rooting rate was calculated from the number of test pieces of the shoot and the number of shoots (the number of rooted shoots) which had been rooted after the foliage was cultured for two months.
The culture was carried out in the same way as Example 1, except that genetically modified E. globulus (Line name: Clone B) was used and a base of the shoot was wounded by a pair of scissors. Note that the base of the shoot (the aforementioned cross-sectional surface) was cut in two directions orthogonal to each other by use of a pair of scissors, and therefore the base was wounded so as to have a cross-shaped wound seen from a front direction.

Substance: oxidized glutathione
- Number of rooted shoots ([1]; Example 11: 50 mg/L in rooting medium, of 26 test pieces): 7
- Rooting rate (%) ([1]; Example 11: 50 mg/L, adding glutathione to rooting medium (with STS, ascorbic acid, IBA 10 mg/L), 26 test pieces): 26.9%
- Rooting rate (%) ([2]; Example 12: 3 mg/L in composite soil (15 g of 1% granule per 5.5 L)): 96.0%
- Number of rooted shoots ([2]; Example 12: 3 mg/L in composite soil): 443
- Rooting rate (%) ([2]; Example 13: 15 mg/L in composite soil (75 g of 1% granule per 5.5 L)): 99.6%
- Number of rooted shoots ([2]; Example 13: 15 mg/L in composite soil): 461
- Rooting rate (%) ([3]; Example 14: 25 mg/L in medium): 88.9%
- Number of rooted shoots ([3]; Example 14: 25 mg/L in medium): 8
- Rooting rate (%) ([3]; Example 15: 75 mg/L in medium): 77.8%
- Number of rooted shoots ([3]; Example 15: 75 mg/L in medium): 7

Reference: patent publication US20140366440A1, “METHOD FOR PRODUCING CLONE SEEDLINGS” (OKAYAMA PREFECTURE, priority 2009, published 2014)
